{
  "source": "patent US12187782B2",
  "about": "“PDL1 peptides for use in cancer vaccines” (IO BIOTECH APS, priority 2016, dated 2025)",
  "key": {"[1]": {"tested_on": "CD8 T-cells specific for the minimal epitope PDL111", "experiment": "ELISPOT with PDL111-specific CD8 T cells", "assay_type": "cell-based, human", "from_the_text": "(§1) The ELISPOT technique enabled screening a high number of peptide antigens for T-cell recognition, despite the availability of relatively few T-cells. We used the ELISPOT assay to quantify peptide-specific, effector cells that secreted IFN-γ, as described in Example 1. We performed the assays according to the guidelines provided by the cancer immunotherapy immunoguiding program (CIP; cimt.eu/cimt/files/dl/cip_guidelines.pdf). To measure T-cell reactivity, nitrocellulose-bottomed 96-well plates (MultiScreen MSIPN4W; Millipore) were coated overnight with the relevant antibodies. The wells were washed and blocked with X-vivo medium for 2 h. The Tumor Infiltrating Lymphoctyes (TILs) were added at different cell concentrations in triplicate wells, with PD-L1 peptides or with control peptide, and incubated overnight. The following day, the wells were washed, and the relevant biotinylated secondary antibody (Mabtech) was added, followed by the avidin-enzyme conjugate (AP-Avidin; Calbiochem/Invitrogen Life Technologies); finally, we added the enzyme substrate, NBT/BCIP (Invitrogen Life Technologies) for visualization. The spots on the developed ELISPOT plates were analyzed on a CTL ImmunoSpot S6 Ultimate-V analyzer with Immunospot software, v5.1.\n[…] We analysed the reactivity towards PDL111, PDL1242-264 ([…]— PDLong2, SEQ ID NO: 91), 10104.1 (—OH) and 10104.1 (NH). […]"}, "[2]": {"tested_on": "PBMCs from malignant melanoma patients", "experiment": "Co-stimulation assay: PBMCs stimulated with DCvacc plus peptide, read by intracellular TNFα/IFNγ staining", "assay_type": "cell-based, human", "settings": "for CD4+ T cell reactivity toward DCvacc increased by co-stimulation (donors) / CD8+ T cell reactivity toward DCvacc increased by co-stimulation (donors): eight donors, vs control peptide", "protocol": "PBMCs from malignant melanoma patients were stimulated with autologous DCvacc with ratio 1:10 DCvacc:PBMCs. […] Second stimulation with DCvacc was performed on day 7 and followed by peptide co-stimulation on day […] (120 U/mL) was added a day after each peptide co-stimulations. A week after second peptide co-stimulation the cultures were analyzed for DCvacc response using intracellular cytokine staining.\nFor detection of cell subpopulations producing cytokines (IFN-γ and TNF-α), PBMCs that were stimulated with DCvacc and co-stimulated with peptides for two weeks, were stimulated with DCvacc (ratio 1:10 DCvacc:PBMCs) for 5 hours at 37° C. with 5% CO2. GolgiPlug (BD) was added at a dilution of 1:200 after the first hour of incubation. After 4 additional hours cells were washed twice with PBS, stained fluorochrome conjugated antibodies for surface markers (CD3-Amcyan, CD4-PerCP and CD8-Pacific Blue, all from BD). Cells were washed one additional time and thereafter were fixed and permeabilized with Fixation/Permeabilization and Permeabilization Buffer (eBioscience), according to manufacturer's instructions. Cells were subsequently stained with fluorochrome-conjugated antibodies for intracellular cytokines. The following combinations were used: IFN-γ-PE-CY7 (BD), TNF-α-APC (eBioscience). […] Stained cells were analyzed using a BD FACSCanto II flow cytometer and further analysis was performed with BD FacsDiva Software."}, "[3]": {"tested_on": "cells from spleen and draining lymph nodes", "experiment": "IFNγ-Elispot of spleen and dLN cells from DNFB-treated mice, stimulated ex vivo with peptide (Example 4)", "assay_type": "cell-based, C56BL/6 mice", "settings": "not with control, 5 μg/ml peptide ex vivo", "protocol": "A solution of 0.15% 2,4-dinitrofluorobenzene (DNFB; an allergen) in 1:4 olive oil/ace-tone (OOA) (or just OOA as a control) was painted on back of both ears of C56BL/6 mice for 3 consecutive days (days 0-2). On day 5 the mice were sacrificed and a single cell solution of the removed spleen and draining lymph nodes (dLNs) was made for further analysis by IFNγ-Elispot.\n8-9×10^5 cells/well were stimulated ex vivo in Elispot plates with 5 μg/ml mPD-L1long1 (mLong1 from Example 3) or mPD-L1short (a part of the mLong1 peptide having the sequence […] (SEQ ID NO: 101)) for 18-20 hours. Spot count for the peptide stimulated wells was subtracted the background (spot count of wells with no peptide stimulation).\n(§2) • Following sacrifice of mice, spleen (and draining lymph nodes (dLNs)) were removed. • Spleen and dLNs was smashed through a […] cell strainer into a 50 ml tube with media (RPMI+10% FCS+1% pen/strep) and washed for at 300 G for 5 minutes, repeated for dLNs. Splenocytes was lysed with RBC lysis buffer for 1 min and washed in media twice. • Cells were counted and transferred to IFNγ Ab-coated Elispot plates in cell number of 9×10^5 cells/well. Coating antibody: Anti-mouse IFN-g mAb AN18 (Mabtech cat no. 3321-3-1000). • Stimulatory peptides were added to designated wells in concentrations of 5 μg/ml. Control wells were not stimulated with peptide. • Elispot plates were developed after 18-20 hours. • Detection antibody Anti-mouse IFN-g mAb R4-6A2-Biotin (Mabtech cat no. 3321-6-1000). Avidin-enzyme conjugate (AP-Avidin; Calbiochem/Invitrogen Life Technologies) and enzyme substrate, NBT/BCIP (Invitrogen Life Technologies) used for visualization. • Spot count for peptide-stimulated wells was always subtracted the corresponding wells without peptide stimulation (the background) • Negative values were sat to zero."}, "[4]": {"tested_on": "PD-L1-specific T cells", "experiment": "Vaccination of mice with mPD-L1long1, IFNγ-Elispot (Example 5)", "assay_type": "in vivo, C56BL/6 mice", "protocol": "C56BL/6 mice were vaccinated subcutaneously (s.c) on the lower back with 100 μg mPD-L1long1 (mLong1 from Example 3) with or without Montanide as an adjuvant (only Montanide as a control) at day 0. On day 7 the mice were sacrificed and a single cell solution of the removed spleen was made for further analysis by IFNγ-Elispot.\n9×10^5 splenocytes/well were stimulated ex vivo in Elispot plates with 5 μg/ml mPD-L1long1 or mPD-L1short for 18-20 hours. Spot count for the peptide stimulated wells was subtracted the background (spot count of wells with no peptide stimulation).\nas §2"}, "[5]": {"tested_on": "splenocytes", "experiment": "IFNγ-Elispot of splenocytes from IFNγ-injected mice, stimulated ex vivo with mPDL1 peptides (Example 3)", "assay_type": "cell-based, C56BL/6 mice", "settings": "splenocytes after prior IFNγ injection; 5 μg/ml peptide ex vivo, 18-20 hours", "protocol": "C56BL/6 mice were injected with 1 μg IFNγ in 200 μl PBS i.p (or no injection for control) two days apart (day 0+2) to simulate inflammation. On day 5 the mice were sacrificed and a single cell solution of the removed spleen was made for further analysis by IFNγ-Elispot.\n9×10^5 splenocytes/well were stimulated ex vivo in Elispot plates with 5 μg/ml peptides from murine (m)PDL1 for 18-20 hours. Spot count for the peptide stimulated wells was subtracted the background (spot count of wells with no peptide stimulation).\nas §2, with “Avidin-enzyme conjugate (AP-Avidin; Calbiochem/Invitrogen Life Technologies) and enzyme substrate, NBT/BCIP (Invitrogen Life Technologies) used for visualization. • Spot count for peptide-stimulated wells was always subtracted the corresponding wells without peptide stimulation (the background) • Negative values were sat to zero.” left out"}, "[6]": {"tested_on": "tumor-infiltrating lymphocytes from 7 melanoma patients", "experiment": "IFNγ ELISPOT on tumor-infiltrating lymphocytes (Example 2)", "assay_type": "cell-based, human", "from_the_text": "as §1"}, "[7]": {"settings": "PBMCs before vaccination (baseline)"}, "[8]": {"settings": "peptide-vaccinated mice (100 μg s.c.) compared to adjuvant alone, day 7"}},
  "note": "No end group written: not given here.",
  "data": [
    {"substance": "Arg-Thr-His-Leu-Val-Ile-Leu-Gly-Ala-Ile-Leu-Leu-Cys-Leu-Gly-Val-Ala-Leu-Thr-Phe-Ile-Phe-Arg-Leu-Arg-Lys-Gly-Arg-NH2 (RTHLVILGAILLCLGVALTFIFRLRKGR-NH2) [IO104.1-NH2]", "values": [
      {"measurement": "reactivity of PDL111-specific CD8 T cells, ELISPOT", "setting": "[1]", "value": "able to react"}
    ]},
    {"substance": "Arg-Thr-His-Leu-Val-Ile-Leu-Gly-Ala-Ile-Leu-Leu-Cys-Leu-Gly-Val-Ala-Leu-Thr-Phe-Ile-Phe-Arg-Leu-Arg-Lys-Gly-Arg-OH (RTHLVILGAILLCLGVALTFIFRLRKGR-OH) [IO104.1-OH]", "values": [
      {"measurement": "reactivity of PDL111-specific CD8 T cells, ELISPOT", "setting": "[1]", "value": "able to react"}
    ]},
    {"substance": "FMTYWHLLNAFTVTVPKDL (listed as Homo sapiens) [PDLong1]", "values": [
      {"measurement": "CD4+ T cell reactivity toward DCvacc increased by co-stimulation (donors)", "setting": "[2]; PBMCs after four vaccinations", "value": "all donors"},
      {"measurement": "CD8+ T cell reactivity toward DCvacc increased by co-stimulation (donors)", "setting": "[2]; PBMCs after four vaccinations", "value": "five out of eight donors"},
      {"measurement": "CD4+ T cell reactivity toward DCvacc increased by co-stimulation (donors)", "setting": "[2]; [7]", "value": "six out of eight donors"},
      {"measurement": "CD8+ T cell reactivity toward DCvacc increased by co-stimulation (donors)", "setting": "[2]; [7]", "value": "seven out of eight donors"},
      {"measurement": "CD4+ T cells reacting against DCvacc compared to control peptide", "setting": "[2]; all cultures, P=0.02", "value": "significantly greater extent"},
      {"measurement": "CD8+ T cells reacting against DCvacc compared to control peptide", "setting": "[2]; all cultures, P=0.05", "value": "significantly greater extent"},
      {"measurement": "number of PBMCs that showed reactivity against DCvacc", "setting": "[2]; cocultured with peptide compared to the control HIV epitope", "value": "increase"}
    ]},
    {"substance": "GIIFTACCHL (listed as Mus musculus) [mPD-L1short]", "values": [
      {"measurement": "recognition by dLNs, IFNγ-Elispot", "setting": "[3]", "value": "recognized"},
      {"measurement": "recognition by splenocytes, IFNγ-Elispot", "setting": "[3]", "value": "recognized"}
    ]},
    {"substance": "MRIFAGIIFTACCHLLRA (listed as Mus musculus) [mLong1]", "values": [
      {"measurement": "recognition by dLNs, IFNγ-Elispot", "setting": "[3]", "value": "recognized"},
      {"measurement": "recognition by splenocytes, IFNγ-Elispot", "setting": "[3]", "value": "recognized"},
      {"measurement": "PD-L1-specific T cell response in the draining lymph nodes (DLNs)", "setting": "[4]; [8]", "value": "strong"},
      {"measurement": "PD-L1-specific T cell response in the spleens", "setting": "[4]; [8]", "value": "strong"},
      {"measurement": "PD-L1-specific response by IFNγ Elispot, ex vivo stimulation with mPD-L1long", "setting": "[4]; vaccinated mice", "value": "increased"},
      {"measurement": "PD-L1-specific response by IFNγ Elispot, ex vivo stimulation with mPD-L1 short", "setting": "[4]; vaccinated mice", "value": "increased"},
      {"measurement": "recognition by T cells, IFNγ-Elispot", "setting": "[5]", "value": "most positive results"}
    ]},
    {"substance": "RTHLVILGAILLCLGVALTFIFRLRKGR (not fully specified; listed as Homo sapiens) [IO104.1, positions 238 to 265 of hPD-L1; C terminal acid or amide form]", "values": [
      {"measurement": "T cell response, IFNγ ELISPOT (patients responding)", "setting": "[6]", "value": "three of the patients"}
    ]},
    {"substance": "WVLLGSILLFLIVVSTVLLFLRKQV (listed as Mus musculus) [mLong3]", "values": [
      {"measurement": "recognition by T cells, IFNγ-Elispot", "setting": "[5]", "value": "most positive results"}
    ]}
  ]
}
